# Structures can show the parent of a compound that is named as a salt. Where two headings read alike, the source gives them in different places.
# Legend:
# [1] = test system: pilocarpine-induced seizures in C57BL/6 mice; assay: Pilocarpine-induced seizures; type: in vivo, mouse
# CHO-hM1 cells = assay: Ca2+ assay features: Fluo-4 fluorescent signal of CHO-hM1 cells; type: cell-based, Chinese hamster; details: bath application
# human M1 mAChR = molecular target: T1, human M1 mAChR (Homo sapiens, UniProt P11229)
# T1 sequence (P11229 1-460): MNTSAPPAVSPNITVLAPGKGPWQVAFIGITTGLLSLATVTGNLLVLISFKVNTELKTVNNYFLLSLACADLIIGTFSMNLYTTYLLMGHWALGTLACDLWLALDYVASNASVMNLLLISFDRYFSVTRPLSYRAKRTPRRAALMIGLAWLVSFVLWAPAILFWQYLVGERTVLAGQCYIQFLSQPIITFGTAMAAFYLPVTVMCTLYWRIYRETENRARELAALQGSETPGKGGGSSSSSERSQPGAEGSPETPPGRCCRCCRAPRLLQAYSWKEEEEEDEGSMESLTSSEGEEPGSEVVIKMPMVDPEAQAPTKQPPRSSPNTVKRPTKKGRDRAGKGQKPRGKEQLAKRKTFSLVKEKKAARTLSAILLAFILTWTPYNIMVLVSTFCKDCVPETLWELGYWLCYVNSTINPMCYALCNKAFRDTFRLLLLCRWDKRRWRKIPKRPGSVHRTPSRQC
# [2] = test system: pilocarpine-induced total fluid secretion in C57BL/6 mice; details: s.c., pilocarpine 50 mg/kg i.p.
# human α7 nAChR = human α7 nAChR (Homo sapiens, UniProt P36544); details: for inhibition of acetylcholine-induced inward current: acetylcholine 1 mM
# Chain of human α7 nAChR (P36544 23-502): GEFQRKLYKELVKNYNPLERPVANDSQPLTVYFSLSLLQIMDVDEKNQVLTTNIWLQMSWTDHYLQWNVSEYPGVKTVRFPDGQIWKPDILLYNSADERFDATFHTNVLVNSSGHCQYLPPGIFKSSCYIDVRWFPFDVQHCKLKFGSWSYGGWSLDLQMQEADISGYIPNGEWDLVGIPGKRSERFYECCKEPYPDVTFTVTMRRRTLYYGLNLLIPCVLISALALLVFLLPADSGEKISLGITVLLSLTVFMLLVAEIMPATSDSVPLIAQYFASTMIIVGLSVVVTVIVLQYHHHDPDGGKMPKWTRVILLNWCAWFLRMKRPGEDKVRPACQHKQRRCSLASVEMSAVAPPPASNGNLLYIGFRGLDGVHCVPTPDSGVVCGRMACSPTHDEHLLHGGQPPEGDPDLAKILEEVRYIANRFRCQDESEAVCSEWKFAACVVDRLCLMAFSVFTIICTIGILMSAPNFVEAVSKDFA
compound,measurement,setting,value
"CN1[C@@H]2CC[C@H]1C[C@@H](OC(=O)C(CO)c1ccccc1)C2 (some centres unmarked) [atropine sulfate, Atropine sulfate monohydrate, reference compound]",effect on pilocarpine-induced seizures,[1]; 3 mg/kg s.c. 25 min before pilocarpine 278 mg/kg,blocked the development of seizures in every mouse
Nc1ncnc2c1ncn2[C@@H]1O[C@H](COP(=O)(O)OP(=O)(O)OP(=O)(O)O)[C@@H](O)[C@H]1O [ATP],effect on Ca2+-dependent fluorescent counts,CHO-hM1 cells; ATP 100 μM,rapidly increased the fluorescent counts
ethylatropine bromide,time to behavior score 3 after pilocarpine administration,"[1]; 100 mg/kg s.c. 25 min before pilocarpine 278 mg/kg, all six mice",≤ 30 min
same,effect on pilocarpine-induced seizures,"[1]; 100 mg/kg s.c. 25 min before pilocarpine 278 mg/kg, six mice",experienced at least one tonic seizure
same,fold less potent than atropine at human M1 muscarinic receptors,human M1 mAChR,approximately 3.3 fold
same,approximate IC50 for attenuation of pilocarpine-induced total secretion,[2],~0.3 mg/kg
same,inhibition of acetylcholine-induced inward current,"human α7 nAChR; 3 μM, n = 3",1.2 ± 8%
same,inhibition of acetylcholine-induced inward current,"human α7 nAChR; 30 μM, n = 5",29 ± 3%
same,inhibition of acetylcholine-induced inward current,"human α7 nAChR; 300 μM, n = 4",46 ± 2%
same,fold less potent than atropine sulfate at α7 nicotinic receptors,human α7 nAChR; ratio of estimated IC50s,~300 fold
C/C=C(/C)C(=O)O[C@H]1C(C)=C2[C@H]([C@@H]1OC(=O)CCCCCCC)[C@@](C)(OC(C)=O)C[C@H](OC(=O)CCC)[C@@]1(O)[C@H]2OC(=O)[C@@]1(C)O [Thapsigargin],effect on Ca2+-dependent fluorescent counts,CHO-hM1 cells; thapsigargin 1 μM,smaller and slower increase in the fluorescent counts
